Experimental data as given in patent publication US20100256357A1, “HETEROCYCLES USEFUL AS INHIBITORS OF CARBONIC ANHYDRASE” (Agouron Pharmaceuticals, Inc., priority 2006, published 2010).
pIC50: −log10 of the molar value. Where two headings read alike, the source gives them in different places.

Experiments:
human CA-II [1] = molecular target: T1, human CA-II (Homo sapiens, UniProt P00918); test: Carbonic Anhydrase-II (CA-II) Fluorimetric Assay-IC50 Determination; format: biochemical; details: for pIC50: Kd ND, read-out: CA-II IC50
T1 construct: purchased Sigma-Aldrich C6165
Method in brief: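 Enzyme activity is read fluorimetrically at 25° C (ex 488 nm / em 538 nm) as the rate at which human CA-II hydrolyses fluorescein diacetate. The buffer is Tris/HCl (50 mM, pH 7.6) with 100 mM Na2SO4 and 0.005% Tween-20. Inhibitors run in duplicate over 11 threefold dilutions, […]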

human CA-IV = molecular target: T2, human CA-IV (Homo sapiens, UniProt P22748); test: Carbonic Anhydrase-IV (CA-IV) Fluorescence Polarization Assay-IC50 Determination; format: binding; details: for inhibition at 0.2 µM: CA-IV Min dose 200 nM, read-out: CA-IV: % Inh @ Min dose
T2 construct: made in house; host or cells: Escherichia coli BL21(DE3)
Procedure: Carbonic Anhydrase-IV (CA-IV) Fluorescence Polarization Assay-IC50 Determination
These cells were grown in Luria broth (LB) media (Biomyx) supplemented with 800 uM ZnCl2 at 37° C. until an O.D.600 of 0.7, at which point the cells were induced with 100 uM isopropyl-beta-D-thiogalactopyranoside (IPTG) for 20 hours at 20° C. The frozen pellet was resuspended in 50mM 2-morpholinoethanesulfonic acid (MES) at pH 6.0, 100 mM NaCl, 800 uM ZnCl2 and EDTA-Free protease inhibitors (Roche). The cells were lysed with a microfluidizer, the lysate was spun at 40,000 rpm for 45 minutes at 4° C., and the soluble fraction was dialyzed overnight at 4° C. in 50 mM MES pH 6.0, and 100 mM NaCl. The soluble fraction was then put over a 100 ml SP-Sepharose High Performance (GE Healthcare) column and eluted with a 50 mM MES pH 6.0, 750 mM NaCl gradient. The peak fractions were then concentrated, via an Amicon Ultra-4 10,000 MWCO (Millipore) spin column to 2.0 mL and loaded onto a Sephacryl S-100 High Resolution (GE Healthcare) column in 25 mM tris(hydroxymethyl)aminomethane hydrochloride (Tris-HCl) pH 7.0, and 100 mM NaCl. The peak fractions were then concentrated, via an Amicon Ultra-4 10,000 MWCO (Millipore) spin column, to 7.0 mg/mL and left exposed at room temperature overnight. […] T.; et al. Carbonic Anhydrase Inhibitors. Med. Res. Rev. […]
Assays were conducted in a final volume of 100 μL in 50 mM Tris/HCl (pH 7.6), 100 mM Na2SO4 and 0.005% Tween-20 in a 96-well black assay plate.

human CA-II [2] = molecular target: T1, human CA-II; test: Carbonic Anhydrase-II (CA-II) Fluorescence Polarization Tight Binding Assay-Kd Determination; details: inhibitor concentration 2.5 nM
Procedure: Assays were conducted in a final volume of 100 μL in 50 mM Tris/HCl (pH 7.6), 100 mM Na2SO4 and 0.005% Tween-20 in a 96-well black assay plate. […] The assay plate was
The Kd binding was calculated using GraphPad Prism and Morrison tight binding ligand equation.

[3] = CA II Min dose 100 nM, read-out: CAII % Inh @ Min dose

T2 sequence (P22748 19-284 limits assumed): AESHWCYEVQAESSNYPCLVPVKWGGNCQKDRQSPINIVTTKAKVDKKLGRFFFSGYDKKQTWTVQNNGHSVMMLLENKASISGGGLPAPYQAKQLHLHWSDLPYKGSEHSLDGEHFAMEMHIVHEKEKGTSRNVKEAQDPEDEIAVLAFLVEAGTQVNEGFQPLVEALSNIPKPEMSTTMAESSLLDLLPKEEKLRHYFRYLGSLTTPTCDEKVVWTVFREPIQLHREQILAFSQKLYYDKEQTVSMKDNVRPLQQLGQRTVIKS

| inhibition at 0.1 µM (human CA-II [1]; [3]) | pIC50 (human CA-II [1]) | inhibition at 0.2 µM (human CA-IV) | pIC50 (human CA-IV; read-out: CA-IV IC50) | inhibition at 0.1 µM (human CA-II [1]; read-out: CA-II % at 100 nM) | inhibition at 0.0025 µM (human CA-II [2]) | pIC50 (human CA-IV; read-out: IC50_CAIV) | Structure (SMILES) |
| --- | --- | --- | --- | --- | --- | --- | --- |
| 100% | 8.47 | 74.3% | 6.94 | – | – | – | NS(=O)(=O)c1ccc(-n2nc(C(=O)N3CCc4ccccc4CC3)nc2Cc2ccccc2)cc1 [Example R-4, 4-[5-benzyl-3-(1245-tetrahydro-3H-3-benzoazepin-3-ylcarbonyl)-1H-124-triazol-1-yl]benzenesulfonamide] |
| 100% | 8.66 | 66.4% | 6.78 | – | – | – | CCCN(CC1CC1)C(=O)c1nc(Cc2ccccc2)n(-c2ccc(S(N)(=O)=O)cc2)n1 [Example R-5, 1-[4-(aminosulfonyl)phenyl]-5-benzyl-N-(cyclopropylmethyl)-N-propyl-1H-124-triazole-3-carboxamide] |
| 101% | 8.43 | 59.1% | 6.74 | – | – | – | NS(=O)(=O)c1ccc(-n2nc(C(=O)N3CCOc4ccccc4C3)nc2Cc2ccccc2)cc1 [Example R-7, 4-[5-benzyl-3-(23-dihydro-14-benzoxazepin-4(5H)-ylcarbonyl)-1H-124-triazol-1-yl]benzenesulfonamide] |
| 99% | – | 56.9% | 6.71 | 99% | – | – | NS(=O)(=O)c1ccc(-n2nc(C(=O)N3CC4CCC3C4)nc2Cc2ccccc2)cc1 (stereo not drawn) [Example R-8, 4-[3-(2-azabicyclo[2.2.1]hept-2-ylcarbonyl)-5-benzyl-1H-124-triazol-1-yl]benzenesulfonamide] |
| 99% | – | 58% | 6.70 | 99% | – | – | CN(CC(O)c1ccccc1)C(=O)c1nc(Cc2ccccc2)n(-c2ccc(S(N)(=O)=O)cc2)n1 (stereo not drawn) [Example R-9, 1-[4-(aminosulfonyl)phenyl]-5-benzyl-N-(2-hydroxy-2-phenylethyl)-N-methyl-1H-124-triazole-3-carboxamide] |
| 99% | – | 58% | 6.69 | 99% | – | – | CN(CCC#N)C(=O)c1nc(Cc2ccccc2)n(-c2ccc(S(N)(=O)=O)cc2)n1 [Example R-10] |
| 101% | – | 62.3% | 6.69 | 101% | – | – | NS(=O)(=O)c1ccc(-n2nc(C(=O)NCC3(c4ccccc4)CC3)nc2Cc2ccccc2)cc1 [Example R-12, 1-[4-(aminosulfonyl)phenyl]-5-benzyl-N-[(1-phenylcyclopropyl)methyl]-1H-124-triazole-3-carboxamide] |
| 100% | – | 59.7% | 6.67 | 100% | – | – | CCCCN(CC)C(=O)c1nc(Cc2ccccc2)n(-c2ccc(S(N)(=O)=O)cc2)n1 [Example R-14, 1-(4-(aminosulfonyl)phenyl]-5-benzyl-N-butyl-N-ethyl-1H-124-triazole-3-carboxamide] |
| 96% | – | 60.9% | 6.66 | 96% | – | – | NS(=O)(=O)c1ccc(-n2nc(C(=O)N3CC(Oc4ccccc4)C3)nc2Cc2ccccc2)cc1 [Example R-15, 4-(5-benzyl-3-[(3-phenoxyazetidin-1-yl)carbonyl]-1H-124-triazol-1-yl)benzenesulfonamide] |
| 100% | – | 61.3% | 6.66 | 100% | – | – | CCCCCN(CCO)C(=O)c1nc(Cc2ccccc2)n(-c2ccc(S(N)(=O)=O)cc2)n1 [Example R-16, 1-[4-(aminosulfonyl)phenyl]-5-benzyl-N-(2-hydroxyethyl)-N-pentyl-1H-124-triazole-3-carboxamide] |
| 96% | – | 56.9% | 6.56 | 98% | – | – | CC(=O)N1CCCN(C(=O)c2nc(Cc3ccccc3)n(-c3ccc(S(N)(=O)=O)cc3)n2)CC1 [Example R-18, 4-(3-[(4-acetyl-14-diazepan-1-yl)carbonyl]-5-benzyl-1H-124-triazol-1-yl)benzenesulfonamide] |
| 99% | 8.45 | 50.2% | 6.51 | – | – | – | CCN(CCCCO)C(=O)c1nc(Cc2ccccc2)n(-c2ccc(S(N)(=O)=O)cc2)n1 [Example R-19, 1-[4-(aminosulfonyl)phenyl)-5-benzyl-N-ethyl-N-(4-hydroxybutyl)-1H-124-triazole-3-carboxamide] |
| 99% | 8.43 | 48.6% | 6.44 | – | – | – | NS(=O)(=O)c1ccc(-n2nc(C(=O)N3CCCCC3)nc2Cc2ccccc2)cc1 [Example R-24, 4-[5-benzyl-3-(piperidin-1-ylcarbonyl)-1H-124-triazol-1-yl]benzenesulfonamide] |
| 101% | 8.60 | 69.3% | 6.41 | – | – | – | CN(C(=O)c1nc(Cc2ccccc2)n(-c2ccc(S(N)(=O)=O)cc2)n1)C1CCCCC1 [Example R-25, 1-[4-(aminosulfonyl)phenyl]-5-benzyl-N-cyclohexyl-N-methyl-1H-124-triazole-3-carboxamide] |
| – | – | – | – | – | 54% | – | CN(CCn1cccn1)Cc1nc(Cc2ccccc2)n(-c2ccc(S(N)(=O)=O)cc2F)n1 [Example T-38, 4-[5-benzyl-3-({methyl[2-(1H-pyrazol-1-yl)ethyl]amino}methyl)-1H-124-triazol-1-yl]-3-fluorobenzenesulfonamide] |
| – | – | – | – | – | 65% | – | NS(=O)(=O)c1ccc(-n2nc(CN3CCC[C@@H](O)C3)nc2Cc2ccccc2)c(F)c1 [Example T-39, 4-(5-benzyl-3-{[(3R)-3-hydroxypiperidin-1-yl]methyl}-1H-124-triazol-1-yl)-3-fluorobenzenesulfonamide] |
| – | – | – | – | – | 49% | – | COC1COCCN(Cc2nc(Cc3ccccc3)n(-c3ccc(S(N)(=O)=O)cc3F)n2)C1 (stereo not drawn) [Example T-40, 4-{5-benzyl-3-[(6-methoxy-14-oxazepan-4-yl)methyl]-1H-124-triazol-1-yl}-3-fluorobenzenesulfonamide] |
| – | – | – | – | – | 58% | – | C[C@@H]1COCCN1Cc1nc(Cc2ccccc2)n(-c2ccc(S(N)(=O)=O)cc2F)n1 [Example T-41, 4-(5-benzyl-3-{[(3R)-3-methylmorpholin-4-yl]methyl}-1H-124-triazol-1-yl)-3-fluorobenzenesulfonamide] |
| – | – | – | – | – | 42% | – | CCCN(C)Cc1nc(Cc2ccccc2)n(-c2ccc(S(N)(=O)=O)cc2F)n1 [Example T-42, 4-(5-benzyl-3-{[methyl(propyl)amino]methyl}-1H-124-triazol-1-yl)-3-fluorobenzenesulfonamide] |
| – | – | – | – | – | – | 5.98 | CCOC(=O)c1cc(C)n(-c2ccc(S(N)(=O)=O)cn2)n1 [mm-1, ethyl 1-[5-(aminosulfonyl)pyridin-2-yl]-5-methyl-1H-pyrazole-3-carboxylate] |
| – | – | – | – | – | – | ≤ 5.30 | Cc1cc(C(=O)O)nn1-c1ccc(S(N)(=O)=O)cc1 [mm-2a, 1-[4-(aminosulfonyl)phenyl]-5-methyl-1H-pyrazole-3-carboxylic acid] |
| – | – | – | – | – | – | 6.31 | NS(=O)(=O)c1ccc(-n2nc(C(=O)O)cc2Cc2ccccc2)cc1 [pp-2a, 1-[4-(aminosulfonyl)phenyl]-5-benzyl-1H-pyrazole-3-carboxylic acid] |
| – | – | – | – | – | – | 6.34 | NS(=O)(=O)c1ccc(-n2nc(C(=O)O)cc2Cc2ccc(Cl)cc2)cc1 [pp-2b, 1-[4-(aminosulfonyl)phenyl]-5-(4-chlorobenzyl]-1H-pyrazole-3-carboxylic acid] |
| – | – | – | – | – | – | 6.43 | NS(=O)(=O)c1ccc(-n2nc(CO)cc2Cc2ccccc2)c(F)c1 [qq-3, 4-[5-Benzyl-3-(hydroxymethyl)-1H-pyrazol-1-yl]-3-fluorobenzenesulfonamide] |
| – | – | – | – | – | – | 6.36 | NS(=O)(=O)c1ccc(-n2nc(CO)cc2Cc2ccccc2)cc1 [qq-3b, 4-[5-benzyl-3-(hydroxymethyl)-1H-pyrazol-1-yl]benzenesulfonamide] |
| – | – | – | – | – | – | 6.33 | NS(=O)(=O)c1ccc(-n2nc(CO)cc2Cc2ccc(Br)cc2)c(F)c1 [qq-3c, 4-[5-(4-bromobenzyl)-3-(hydroxymethyl)-1H-pyrazol-1-yl]-3-fluorobenzenesulfonamide] |
| – | – | – | – | – | – | ≤ 5.30 | NS(=O)(=O)c1ccc(-n2nc(CO)c3c2CCCC3)cc1 [qq-3d, 4-[3-(hydroxymethyl)-4,5,6,7-tetrahydro-1H-indazol-1-yl]benzenesulfonamide] |
